Assay [1] addresses T1, HiBit-BRM fusion protein (Homo sapiens, UniProt P51531).
T1 construct: expressed in transfected cells
In words: HiBiT-BRM cell-based degradation assay (Nano-Glo HiBiT Lytic Detection, 24 h). As to conditions: HeLa cells expressing HiBiT-BRM; for DC50: read-out: BRM HiBit Degradation IC50; for BRM HiBit Degradation Maximum measured: top dose 30 μM. The procedure, abridged:
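HeLa cells stably expressing HiBiT-BRM were dosed with compounds (10-point 3-fold dilutions, 30 μM final top dose, duplicate) for 24 h. HiBiT signal was read by lytic LgBiT complementation luminescence. Percent degradation was normalised to DMSO (high control) and 2 μM of a reference BRM/BRG1 degrader (low control).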

Assay [2] has as its target T2, HiBit-BRG1 fusion protein (Homo sapiens, UniProt P51532).
T2 construct: expressed in transfected cells
In words: HiBiT-BRG1 cell-based degradation assay (Nano-Glo HiBiT Lytic Detection, 24 h). To be noted: HeLa cells expressing HiBit-BRG1 and LgBit; for DC50: read-out: BRG1 HiBit Degradation IC50; for Dmax: HeLa, top dose 30 μM, read-out: BRG1 HiBit Degradation Maximum measured. The procedure, abridged:
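Stable HeLa line expressing HiBiT-BRG1 and LgBiT, seeded at 5000 cells/well; luminescence read after lytic Nano-Glo HiBiT reagent and 10 min shaking at RT. % degradation normalised between DMSO (high control) and 2 μM reference BRM/BRG1 degrader (low control).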

Where a name gives a salt, the structure may show the parent alone.

T2 sequence (P51532 whole entry, the tested form may be a part): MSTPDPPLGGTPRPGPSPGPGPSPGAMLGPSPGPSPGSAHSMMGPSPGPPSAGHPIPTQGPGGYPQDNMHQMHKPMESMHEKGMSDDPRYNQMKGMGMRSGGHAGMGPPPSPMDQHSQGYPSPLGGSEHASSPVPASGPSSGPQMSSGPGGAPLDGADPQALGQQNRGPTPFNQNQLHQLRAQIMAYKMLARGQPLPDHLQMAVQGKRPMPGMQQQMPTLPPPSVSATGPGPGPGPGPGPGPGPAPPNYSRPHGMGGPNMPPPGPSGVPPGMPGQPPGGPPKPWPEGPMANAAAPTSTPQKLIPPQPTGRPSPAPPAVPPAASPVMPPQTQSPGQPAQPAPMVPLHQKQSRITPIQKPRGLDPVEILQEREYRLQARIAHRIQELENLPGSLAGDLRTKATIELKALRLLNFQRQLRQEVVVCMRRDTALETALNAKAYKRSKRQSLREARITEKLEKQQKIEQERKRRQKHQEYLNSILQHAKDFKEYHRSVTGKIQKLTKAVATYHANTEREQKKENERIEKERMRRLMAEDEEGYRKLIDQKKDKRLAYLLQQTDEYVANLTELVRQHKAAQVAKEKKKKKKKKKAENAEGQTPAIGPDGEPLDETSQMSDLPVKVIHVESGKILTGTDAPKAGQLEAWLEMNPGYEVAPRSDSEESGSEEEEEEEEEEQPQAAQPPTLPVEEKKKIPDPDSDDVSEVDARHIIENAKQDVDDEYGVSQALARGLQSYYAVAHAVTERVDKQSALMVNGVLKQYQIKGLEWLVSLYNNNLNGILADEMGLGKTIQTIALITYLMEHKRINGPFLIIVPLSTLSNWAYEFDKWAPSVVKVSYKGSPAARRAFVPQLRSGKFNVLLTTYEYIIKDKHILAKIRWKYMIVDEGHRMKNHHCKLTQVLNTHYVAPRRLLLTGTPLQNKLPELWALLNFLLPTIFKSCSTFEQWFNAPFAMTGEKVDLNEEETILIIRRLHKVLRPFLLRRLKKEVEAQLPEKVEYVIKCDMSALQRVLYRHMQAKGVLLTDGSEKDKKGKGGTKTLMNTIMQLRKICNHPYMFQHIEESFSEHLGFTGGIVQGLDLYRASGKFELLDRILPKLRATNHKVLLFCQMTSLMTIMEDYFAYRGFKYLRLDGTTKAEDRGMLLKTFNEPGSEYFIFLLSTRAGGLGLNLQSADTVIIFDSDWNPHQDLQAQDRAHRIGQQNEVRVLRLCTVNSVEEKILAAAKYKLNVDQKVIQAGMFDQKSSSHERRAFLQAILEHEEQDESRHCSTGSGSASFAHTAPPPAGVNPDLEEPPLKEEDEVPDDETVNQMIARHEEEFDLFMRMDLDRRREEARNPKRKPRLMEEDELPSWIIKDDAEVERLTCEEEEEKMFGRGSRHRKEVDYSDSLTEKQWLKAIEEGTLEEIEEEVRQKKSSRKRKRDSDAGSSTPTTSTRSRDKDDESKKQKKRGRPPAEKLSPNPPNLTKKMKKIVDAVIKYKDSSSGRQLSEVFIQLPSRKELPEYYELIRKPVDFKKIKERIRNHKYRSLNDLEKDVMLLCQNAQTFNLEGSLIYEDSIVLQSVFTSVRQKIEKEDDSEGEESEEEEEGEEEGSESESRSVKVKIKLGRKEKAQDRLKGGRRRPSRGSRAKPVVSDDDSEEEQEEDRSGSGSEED
T1 sequence (P51531 whole entry, the tested form may be a part): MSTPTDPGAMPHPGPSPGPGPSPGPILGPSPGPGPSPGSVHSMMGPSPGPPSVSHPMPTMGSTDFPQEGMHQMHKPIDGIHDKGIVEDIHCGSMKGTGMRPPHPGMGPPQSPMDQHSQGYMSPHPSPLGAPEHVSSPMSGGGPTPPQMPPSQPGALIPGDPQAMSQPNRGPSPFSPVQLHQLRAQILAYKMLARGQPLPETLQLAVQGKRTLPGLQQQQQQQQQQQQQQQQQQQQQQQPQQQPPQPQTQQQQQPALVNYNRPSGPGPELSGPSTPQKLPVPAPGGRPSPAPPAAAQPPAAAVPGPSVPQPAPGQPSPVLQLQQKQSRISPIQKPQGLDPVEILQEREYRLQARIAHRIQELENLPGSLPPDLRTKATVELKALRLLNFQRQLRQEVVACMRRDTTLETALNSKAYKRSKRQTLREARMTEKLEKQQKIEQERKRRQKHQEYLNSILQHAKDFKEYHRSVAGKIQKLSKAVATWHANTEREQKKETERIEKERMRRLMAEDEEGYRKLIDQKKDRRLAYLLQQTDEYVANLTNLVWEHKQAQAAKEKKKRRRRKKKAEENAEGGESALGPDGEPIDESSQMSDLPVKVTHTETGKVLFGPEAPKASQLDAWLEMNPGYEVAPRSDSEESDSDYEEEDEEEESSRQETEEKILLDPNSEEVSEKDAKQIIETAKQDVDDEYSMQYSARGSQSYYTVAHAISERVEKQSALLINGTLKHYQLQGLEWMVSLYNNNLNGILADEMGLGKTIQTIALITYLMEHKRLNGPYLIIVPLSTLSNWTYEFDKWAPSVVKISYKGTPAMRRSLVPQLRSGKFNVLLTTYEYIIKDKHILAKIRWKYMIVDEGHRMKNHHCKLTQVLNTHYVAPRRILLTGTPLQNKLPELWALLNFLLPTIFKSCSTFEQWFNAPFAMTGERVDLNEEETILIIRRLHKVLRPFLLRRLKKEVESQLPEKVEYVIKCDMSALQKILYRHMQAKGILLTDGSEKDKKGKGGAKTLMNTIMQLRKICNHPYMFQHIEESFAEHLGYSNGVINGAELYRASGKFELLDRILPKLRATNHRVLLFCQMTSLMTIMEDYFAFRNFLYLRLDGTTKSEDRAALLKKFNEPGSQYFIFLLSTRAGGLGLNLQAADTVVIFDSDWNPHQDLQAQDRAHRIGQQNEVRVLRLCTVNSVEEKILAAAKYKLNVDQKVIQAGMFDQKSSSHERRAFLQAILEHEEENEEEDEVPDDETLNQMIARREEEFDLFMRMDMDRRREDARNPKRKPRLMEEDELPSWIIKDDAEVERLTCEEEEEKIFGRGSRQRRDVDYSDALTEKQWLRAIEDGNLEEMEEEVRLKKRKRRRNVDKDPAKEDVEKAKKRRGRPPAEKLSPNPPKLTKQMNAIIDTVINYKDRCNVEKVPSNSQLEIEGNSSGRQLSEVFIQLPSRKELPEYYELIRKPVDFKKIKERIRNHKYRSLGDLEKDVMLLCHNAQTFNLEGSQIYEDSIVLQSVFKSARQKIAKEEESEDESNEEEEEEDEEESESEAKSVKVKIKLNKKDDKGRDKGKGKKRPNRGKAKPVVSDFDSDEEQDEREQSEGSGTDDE

As to `Cc1ncsc1-c1ccc(CNC(=O)[C@@H]2C[C@@H](O)CN2C(=O)[C@@H](NC(=O)CCN2CCC(C(=O)NCc3cccc(-c4cccc(-c5csc(NC(=O)CNC(=O)c6ccn(S(C)(=O)=O)c6)n5)c4)c3)CC2)C(C)(C)C)cc1` [Compound 155, 1-(2-[[(2S)-1-[(2S,4R)-4-hydroxy-2-([[4-(4-methyl-1,3-thiazol-5-yl)phenyl]methyl]carbamoyl)pyrrolidin-1-yl]-3,3-dimethyl-1-oxobutan-2-yl]carbamoyl]ethyl)-N-[[3-(2-[2-[(1-methanesulfonylpyrrol-3-yl)formamido]acetamido]-1,3-thiazol-4-yl)-[1,1-biphenyl]-3-yl]methyl]piperidine-4-carboxamide formate], in assay [1], the DC50 was above 10 µM and the “BRM HiBit Degradation Maximum measured” value is on record as “C (‘C’ = Maximum degradation <50%)”. Besides, the DC50 in assay [2] is above 10 µM.

Turning to `CS(=O)(=O)n1ccc(C(=O)NCC(=O)Nc2nc(-c3cccc(-c4ccnc(C5(C(=O)N6CC(CN7CCN(c8ccc9c(c8)C(=O)N(C8CCC(=O)NC8=O)C9=O)CC7)C6)CC5)c4)c3)cs2)c1` (centres unmarked) [Compound 156, N-[4-[3-(2-[1-[3-([4-[2-(2,6-dioxopiperidin-3-yl)-1,3-dioxoisoindol-5-yl]piperazin-1-yl]methyl)azetidine-1-carbonyl]cyclopropyl]pyridin-4-yl)phenyl]-1,3-thiazol-2-yl]-2-[(1-methanesulfonylpyrrol-3-yl)formamido]acetamide], in assay [1], the DC50 was in the range of 0.1 to 1 µM and the “BRM HiBit Degradation Maximum measured” value is given as “A (‘A’ = Maximum degradation >75%)”. Further, in assay [2], the DC50 fell in the range of 0.1 to 1 µM and the Dmax is above 75%.

For `Cc1ncsc1-c1ccc(CNC(=O)[C@@H]2C[C@@H](O)CN2C(=O)[C@@H](NC(=O)CN2CC(C(=O)NCc3cccc(-c4cccc(-c5csc(NC(=O)CNC(=O)c6ccn(S(C)(=O)=O)c6)n5)c4)c3)C2)C(C)(C)C)cc1` [Compound 157, (2S,4R)-4-hydroxy-1-[(2S)-2-[2-[3-([[3-(2-[2-[(1-methan-esulfonyl-pyrrol-3-yl)formamido]acetamido]-1,3-thiazol-4-yl)-[1,1-biphenyl]-3-yl]methyl]carbamoyl)azetidin-1-yl]acetamido]-3,3-dimethylbutanoyl]-N-[[4-(4-methyl-1,3-thiazol-5-yl)phenyl]methyl]pyrr-oledine-2-carboxamide], in assay [1], the DC50 was above 10 µM and the “BRM HiBit Degradation Maximum measured” value is “C (‘C’ = Maximum degradation <50%)”. In assay [2], the DC50 is above 10 µM and the Dmax was below 50%.

`Cc1ncsc1-c1ccc(CNC(=O)[C@@H]2C[C@@H](O)CN2C(=O)[C@@H](NC(=O)NCc2cccc(-c3cccc(-c4csc(NC(=O)CNC(=O)c5ccn(S(C)(=O)=O)c5)n4)c3)c2)C(C)(C)C)cc1` [Compound 158, (2S,4R)-4-hydroxy-1-[(2S)-2-[([[3-(2-[2-[(1-methanesulfonylpyrrol-3-yl)formamido]acetamido]-1,3-thiazol-4-yl)-[1,1-biphenyl]-3-yl]methyl]carbamoyl)amino]-3,3-dimethylbutanoyl]-N-[[4-(4-methyl-1,3-thiazol-5-yl)phenyl]methyl]pyrrolidine-2-carboxamide]: in assay [1], the DC50 was above 10 µM and the “BRM HiBit Degradation Maximum measured” value was “C (‘C’ = Maximum degradation <50%)”. In assay [2], the DC50 was above 10 µM and the Dmax is below 50%.

Consider `Cc1ncsc1-c1ccc(CNC(=O)[C@@H]2C[C@@H](O)CN2C(=O)[C@@H](NC(=O)C2CC2C(=O)NCc2cccc(-c3cccc(-c4csc(NC(=O)CNC(=O)c5ccn(S(C)(=O)=O)c5)n4)c3)c2)C(C)(C)C)cc1` (stereo partly drawn) [Compound 159, N1-[(2S)-1-[(2S,4R)-4-hydroxy-2-([[4-(4-methyl-1,3-thiazol-5-yl)phenyl]methyl]carbamoyl)pyrrolidin-1-yl]-3,3-dimethyl-1-oxobutan-2-yl]-N2-[[3-(2-[2-[(1-methanesulfonylpyrrol-3-yl)formamido]acetamido]-1,3-thiazol-4-yl)-[1,1-biphenyl]-3-yl]methyl]cyclopropane-1,2-dicarboxamide], for which, in assay [1], the DC50 is above 10 µM and the “BRM HiBit Degradation Maximum measured” value is “C (‘C’ = Maximum degradation <50%)”. Also, in assay [2], the DC50 was above 10 µM and the Dmax was below 50%.

As for `Cc1ncsc1-c1ccc(CNC(=O)[C@@H]2C[C@@H](O)CN2C(=O)[C@@H](NC(=O)N2CC(C(=O)NCc3cccc(-c4cccc(-c5csc(NC(=O)CNC(=O)c6ccn(S(C)(=O)=O)c6)n5)c4)c3)C2)C(C)(C)C)cc1` [Compound 160, N1-[(2S)-1-[(2S,4R)-4-hydroxy-2-([[4-(4-methyl-1,3-thiazol-5-yl)phenyl]methyl]carbamoyl)pyrrolidin-1-yl]-3,3-dimethyl-1-oxobutan-2-yl]-N3-[[3-(2-[2-[(1-methanesulfonylpyrrol-3-yl)formamido]acetamido]-1,3-thiazol-4-yl)-[1,1-biphenyl]-3-yl]methyl]azetidine-1,3-dicarboxamide], in assay [1], the DC50 was above 10 µM and the “BRM HiBit Degradation Maximum measured” value was “C (‘C’ = Maximum degradation <50%)”. In addition, in assay [2], the DC50 is above 10 µM and the Dmax was below 50%.

Turning to `CS(=O)(=O)n1ccc(C(=O)NCC(=O)Nc2nc(-c3cccc(-c4ccnc(C5(C(=O)NCCOc6ccc7c(c6)C(=O)N(C6CCC(=O)NC6=O)C7=O)CC5)c4)c3)cs2)c1` (centres unmarked) [Compound 161], in assay [1], the DC50 is 0.1 to 1 µM; the “BRM HiBit Degradation Maximum measured” value is “B (‘B’ = Maximum degradation ≥50% and ≤75%)”. In assay [2], the DC50 was in the range of 0.1 to 1 µM and the Dmax was above 75%.

For the compound `CN(CCNc1ccc2c(c1)C(=O)N(C1CCC(=O)NC1=O)C2=O)C(=O)C1(c2cc(-c3cccc(-c4csc(NC(=O)CNC(=O)c5ccn(S(C)(=O)=O)c5)n4)c3)ccn2)CC1` (centres unmarked) [Compound 162, N-(2-[[2-(2,6-dioxopiperidin-3-yl)-1,3-dioxoisoindol-5-yl]amino]ethyl)-1-[4-[3-(2-[2-[(1-methanesulfonylpyrrol-3-yl)formamido]acetamido]-1,3-thiazol-4-yl)phenyl]pyridin-2-yl]-N-methylcyclopropane-1-carboxamide], in assay [1], the DC50 was above 10 µM and the “BRM HiBit Degradation Maximum measured” value is reported as “C (‘C’ = Maximum degradation <50%)”. In addition, in assay [2], the DC50 is above 10 µM and the Dmax is below 50%.

Regarding `Cc1ncsc1-c1ccc(CNC(=O)[C@@H]2C[C@@H](O)CN2C(=O)[C@@H](NC(=O)CN2CC3(CC(C(=O)NCc4cccc(-c5cccc(-c6csc(NC(=O)CNC(=O)c7ccn(S(C)(=O)=O)c7)n6)c5)c4)C3)C2)C(C)(C)C)cc1` [Compound 163, 2-([[(2S)-1-[(2S,4R)-4-hydroxy-2-([[4-(4-methyl-1,3-thiazol-5-yl)phenyl]methyl]carbamoyl)pyrrolidin-1-yl]-3,3-dimethyl-1-oxobutan-2-yl]carbamoyl]methyl)-N-[[3-(2-[2-[(1-methanesulfonylpyrrol-3-yl)formamido]acetamido]-1,3-thiazol-4-yl)-[1,1-biphenyl]-3-yl]methyl]-2-azaspiro[3.3]heptane-6-carboxamide], in assay [1], the DC50 is 0.1 to 1 µM; the “BRM HiBit Degradation Maximum measured” value was “B (‘B’ = Maximum degradation ≥50% and ≤75%)”. Moreover, in assay [2], the DC50 is above 10 µM and the Dmax is below 50%.

As for `Cc1ncsc1-c1ccc(CNC(=O)[C@@H]2C[C@@H](O)CN2C(=O)[C@@H](NCc2cccc(-c3cccc(-c4csc(NC(=O)CNC(=O)c5ccn(S(C)(=O)=O)c5)n4)c3)c2)C(C)(C)C)cc1` [Compound 164, (2S,4R)-4-hydroxy-1-[(2S)-2-([[3′-(2-[2-[(1-methanesulfonylpyrrol-3-yl)formamido]acetamido]-1,3-thiazol-4-yl)-[1,1′-biphenyl]-3-yl]methyl]amino)-3,3-dimethylbutanoyl]-N-[[4-(4-methyl-1,3-thiazol-5-yl)phenyl]methyl]pyrrolidine-2-carboxamide], in assay [1], the DC50 is above 10 µM and the “BRM HiBit Degradation Maximum measured” value is given as “C (‘C’ = Maximum degradation <50%)”. For the same compound, in assay [2], the DC50 is above 10 µM and the Dmax was below 50%.

Take `CS(=O)(=O)n1ccc(C(=O)NCC(=O)Nc2nc(-c3cccc(-c4ccnc(N5CCN(c6ccc7c(c6)C(=O)N(C6CCC(=O)NC6=O)C7=O)CC5)c4)c3)cs2)c1` (centres unmarked) [Compound 165, N-[4-[3-(2-[4-[2-(2,6-dioxopiperidin-3-yl)-1,3-dioxoisoindol-5-yl]piperazin-1-yl]pyridin-4-yl)phenyl]-1,3-thiazol-2-yl]-2-[(1-methanesulfonylpyrrol-3-yl)formamido]acetamide trifluoroacetate]: in assay [1], the DC50 is above 10 µM and the “BRM HiBit Degradation Maximum measured” value is “C (‘C’ = Maximum degradation <50%)”. Moreover, in assay [2], the DC50 is above 10 µM and the Dmax is below 50%.

With `Cc1ncsc1-c1ccc(CNC(=O)[C@@H]2C[C@@H](O)CN2C(=O)[C@@H](NC(=O)CN2CC3(CN(CC(=O)NCc4cccc(-c5cccc(-c6csc(NC(=O)CNC(=O)c7ccn(S(C)(=O)=O)c7)n6)c5)c4)C3)C2)C(C)(C)C)cc1.O=C(O)C(F)(F)F` [Compound 166, (2S,4R)-4-hydroxy-1-[(2S)-2-(2-[6-[([[3′-(2-[2-[(1-methanesulfonylpyrrol-3-yl)formamido]acetamido]-1,3-thiazol-4-yl)-[1,1′-biphenyl]-3-yl]methyl]carbamoyl)methyl]-2,6-diazaspiro[3.3]heptan-2-yl]acetamido)-3,3-dimethylbutanoyl]-N-[[4-(4-methyl-1,3-thiazol-5-yl)phenyl]methyl]pyrrolidine-2-carboxamide trifluoroacetate], in assay [1], the DC50 was in the range of 0.1 to 1 µM; the “BRM HiBit Degradation Maximum measured” value is “B (‘B’ = Maximum degradation ≥50% and ≤75%)”. In assay [2], the DC50 is above 10 µM and the Dmax was below 50%.

These data come from US12662479B2 (Foghorn Therapeutics Inc., priority 2020, dated 2026).
